Data as given in PMC4764579, “Structural insights into the mechanism of activation of the TRPV1 channel by a membrane-bound tarantula toxin” (eLife, 2016).

Tests used:
[1] = target: rat TRPV1, full-length channel expressed in HEK293 cells (rat) (UniProt O35433)
Sequence of rat TRPV1, full-length channel expressed in HEK293 cells (rat) (O35433 whole entry): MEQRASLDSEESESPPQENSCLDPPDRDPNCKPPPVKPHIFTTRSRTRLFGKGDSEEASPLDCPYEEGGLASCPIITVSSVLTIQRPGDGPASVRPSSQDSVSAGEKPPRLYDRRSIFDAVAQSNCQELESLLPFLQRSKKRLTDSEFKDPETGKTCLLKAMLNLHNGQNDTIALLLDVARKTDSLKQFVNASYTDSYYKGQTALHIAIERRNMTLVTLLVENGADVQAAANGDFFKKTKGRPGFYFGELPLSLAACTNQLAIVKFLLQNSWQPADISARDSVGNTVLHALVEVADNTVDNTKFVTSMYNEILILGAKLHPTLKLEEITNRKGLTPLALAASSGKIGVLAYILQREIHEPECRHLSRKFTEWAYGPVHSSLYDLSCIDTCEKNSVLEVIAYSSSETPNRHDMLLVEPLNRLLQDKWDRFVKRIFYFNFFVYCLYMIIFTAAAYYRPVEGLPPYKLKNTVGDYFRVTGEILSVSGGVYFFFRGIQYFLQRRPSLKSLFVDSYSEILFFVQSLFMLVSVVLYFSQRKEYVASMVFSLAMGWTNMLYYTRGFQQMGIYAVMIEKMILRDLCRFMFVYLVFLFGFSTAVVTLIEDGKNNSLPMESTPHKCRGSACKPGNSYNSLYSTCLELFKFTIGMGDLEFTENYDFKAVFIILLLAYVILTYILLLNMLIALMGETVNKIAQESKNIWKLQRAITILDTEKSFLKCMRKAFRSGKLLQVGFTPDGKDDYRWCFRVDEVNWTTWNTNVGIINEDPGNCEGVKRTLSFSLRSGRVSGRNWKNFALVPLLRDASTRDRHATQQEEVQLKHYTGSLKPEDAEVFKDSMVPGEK

Sequence of double-knot toxin (DkTx), full-length toxin produced recombinantly (natural protein) (P0CH43 1-75): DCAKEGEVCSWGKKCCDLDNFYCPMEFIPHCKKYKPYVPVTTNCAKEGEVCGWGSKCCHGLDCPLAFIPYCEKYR

Row | Substance | Trp emission maximum in aqueous solution | fractional dissociation 1 min after toxin removal (current 1 min after removal divided by steady-state current with toxin), whole-cell patch clamp at +120 mV, TRPV1 in HEK cells [1]
1 | double-knot toxin | 353 nm | –
2 | double-knot toxin (DkTx), full-length toxin produced recombinantly (natural protein) | – | 0.8
